The source of these data is patent US20080009418A1, “Selective Inhibitors” (Alchemia LTD., priority 2004, published 2008).

Assay [1] has as its target T1, Human δ-opioid (DOP) (Homo sapiens, UniProt P41143).
T1 construct: purchased Perkin Elmer Biosignal
Description: Radioligand binding, human δ-opioid (DOP) membranes, FlashPlate, [3H]-Bremazocine. Particulars: compound at 10 μM; [3H]-Bremazocine. In short, it runs like this: (§1)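 Cloned human receptor membranes were coated onto FlashPlate wells and incubated with radioligand and compound (added from a 0.5 mM DMSO daughter plate) for 1 hour at room temperature in the dark. Scintillation counting gave percent inhibition, with DMSO defining total and reference ligand defining non-specific binding.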

In assay [2] the target is T2, Human κ-Opioid (KOP) (Homo sapiens, UniProt P41145).
T2 construct: purchased Perkin Elmer Biosignal
T2 sequence (P41145 whole entry): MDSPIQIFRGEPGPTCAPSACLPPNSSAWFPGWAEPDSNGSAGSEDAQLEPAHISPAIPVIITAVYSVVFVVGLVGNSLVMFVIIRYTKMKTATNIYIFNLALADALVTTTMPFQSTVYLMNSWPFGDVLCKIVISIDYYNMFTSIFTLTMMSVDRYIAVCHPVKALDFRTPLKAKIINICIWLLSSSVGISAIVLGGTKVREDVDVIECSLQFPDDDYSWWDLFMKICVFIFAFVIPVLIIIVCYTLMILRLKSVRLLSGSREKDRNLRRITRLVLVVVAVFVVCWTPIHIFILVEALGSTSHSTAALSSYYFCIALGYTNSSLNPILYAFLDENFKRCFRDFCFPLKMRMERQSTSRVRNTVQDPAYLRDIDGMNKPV
Nature of the assay: Radioligand binding, human κ-opioid (KOP) membranes, filtration, [3H]-Diprenorphine. Particulars: compound at 10 μM; [3H]-Diprenorphine. The method in brief: (§2)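 Membranes from cloned human receptors were incubated with compound and radioligand for 1 hour at room temperature. Bound ligand was collected on 0.3% PEI-soaked filters, washed with cold 50 mM Tris-HCl pH 7.4, and counted by scintillation. Percent inhibition was computed against DMSO totals and reference-ligand nonspecific wells.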

Assay [3] has as its target T3, Human Melanocortin (MC3) (Homo sapiens, UniProt P41968).
T3 construct: purchased Perkin Elmer Biosignal
Nature of the assay: Radioligand binding, human melanocortin MC3 membranes, FlashPlate, [125I]-NDP-αMSH. Particulars: compound at 10 μM; [125I]-NDP-αMSH. In short, it runs like this: as §1

The target in assay [4] is T4, Human Melanocortin (MC4) (Homo sapiens, UniProt P32245).
T4 construct: purchased Perkin Elmer Biosignal
T4 sequence (P32245 whole entry): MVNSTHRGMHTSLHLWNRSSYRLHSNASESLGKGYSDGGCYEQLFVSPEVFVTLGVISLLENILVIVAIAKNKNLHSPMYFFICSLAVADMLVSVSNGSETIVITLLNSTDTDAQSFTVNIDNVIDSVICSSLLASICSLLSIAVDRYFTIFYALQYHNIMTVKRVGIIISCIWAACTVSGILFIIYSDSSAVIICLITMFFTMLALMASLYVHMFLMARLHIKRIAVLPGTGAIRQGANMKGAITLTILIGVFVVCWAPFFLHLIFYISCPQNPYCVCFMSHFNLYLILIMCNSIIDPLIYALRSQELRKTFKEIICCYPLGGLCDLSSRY
Description: Radioligand binding, human melanocortin MC4 membranes, FlashPlate, [125I]-NDP-αMSH. Particulars: compound at 10 μM; [125I]-NDP-αMSH. The method in brief:
as §1

Assay [5] deals with T5, Human melanocortin (MC5) (Homo sapiens, UniProt P33032).
T5 construct: purchased Perkin Elmer Biosignal
T5 sequence (P33032 whole entry): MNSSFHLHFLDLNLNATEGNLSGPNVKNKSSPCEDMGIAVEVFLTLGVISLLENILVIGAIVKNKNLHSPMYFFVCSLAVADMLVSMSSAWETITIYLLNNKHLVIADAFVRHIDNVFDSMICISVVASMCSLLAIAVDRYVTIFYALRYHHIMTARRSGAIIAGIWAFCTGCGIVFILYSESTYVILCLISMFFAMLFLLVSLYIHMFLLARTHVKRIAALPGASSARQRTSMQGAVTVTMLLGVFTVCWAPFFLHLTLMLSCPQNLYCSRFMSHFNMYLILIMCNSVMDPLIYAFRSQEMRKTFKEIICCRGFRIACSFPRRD
Description: Radioligand binding, human melanocortin MC5 membranes, FlashPlate, [125I]-NDP-αMSH. Particulars: compound at 10 μM; [125I]-NDP-αMSH. The method in brief:
as §1

In assay [6] the target is T6, Human melanin-concentrating hormone (MCH1) (Homo sapiens, UniProt Q99705).
T6 construct: purchased Perkin Elmer Biosignal
T6 sequence (Q99705 whole entry): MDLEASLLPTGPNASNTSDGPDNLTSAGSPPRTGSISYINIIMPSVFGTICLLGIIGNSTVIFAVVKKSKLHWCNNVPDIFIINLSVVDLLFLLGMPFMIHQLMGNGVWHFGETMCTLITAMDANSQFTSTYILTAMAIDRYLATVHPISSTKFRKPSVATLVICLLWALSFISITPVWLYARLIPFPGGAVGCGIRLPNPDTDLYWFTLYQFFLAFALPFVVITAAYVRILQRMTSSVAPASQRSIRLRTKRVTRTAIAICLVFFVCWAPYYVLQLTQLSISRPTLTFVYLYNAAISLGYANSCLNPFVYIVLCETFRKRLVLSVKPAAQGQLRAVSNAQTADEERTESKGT
Nature of the assay: Radioligand binding, human melanin-concentrating hormone MCH1 membranes, FlashPlate, [125I]-S36057. Particulars: compound at 10 μM; [125I]-S36057. The method in brief:
as §1

Assay [7] concerns the target T7, Human μ-opioid (MOP) (Homo sapiens, UniProt P35372).
T7 construct: purchased Perkin Elmer Biosignal
Nature of the assay: Radioligand binding, human μ-opioid (MOP) membranes, FlashPlate, [3H]-Naloxone. The conditions noted are these: compound at 10 μM; [3H]-Naloxone; 10 µM. The method in brief: as §1

In assay [8] the target is T8, Human neurokinin (NK1) (Homo sapiens, UniProt P25103).
T8 construct: purchased Perkin Elmer Biosignal
T8 sequence (P25103 whole entry): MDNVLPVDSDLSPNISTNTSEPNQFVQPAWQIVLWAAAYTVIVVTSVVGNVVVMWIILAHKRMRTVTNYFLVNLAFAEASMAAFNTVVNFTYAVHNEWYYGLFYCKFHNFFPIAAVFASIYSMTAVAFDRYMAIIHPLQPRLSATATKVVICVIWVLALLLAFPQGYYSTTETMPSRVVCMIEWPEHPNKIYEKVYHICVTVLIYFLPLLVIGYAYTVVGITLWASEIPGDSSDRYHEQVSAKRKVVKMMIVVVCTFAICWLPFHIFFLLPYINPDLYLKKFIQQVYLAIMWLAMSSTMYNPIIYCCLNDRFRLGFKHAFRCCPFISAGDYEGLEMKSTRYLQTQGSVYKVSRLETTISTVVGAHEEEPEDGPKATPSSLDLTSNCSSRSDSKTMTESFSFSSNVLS
Nature of the assay: Radioligand binding, human neurokinin NK1 membranes, filtration, [125I]-Substance P. Particulars: compound at 10 μM; [125I]-Substance P. The method in brief: as §2

For assay [9], the target named is T9, Human neuropeptide Y (NPY-Y1) (Homo sapiens, UniProt P25929).
T9 construct: purchased Perkin Elmer Biosignal
T9 sequence (P25929 1-384): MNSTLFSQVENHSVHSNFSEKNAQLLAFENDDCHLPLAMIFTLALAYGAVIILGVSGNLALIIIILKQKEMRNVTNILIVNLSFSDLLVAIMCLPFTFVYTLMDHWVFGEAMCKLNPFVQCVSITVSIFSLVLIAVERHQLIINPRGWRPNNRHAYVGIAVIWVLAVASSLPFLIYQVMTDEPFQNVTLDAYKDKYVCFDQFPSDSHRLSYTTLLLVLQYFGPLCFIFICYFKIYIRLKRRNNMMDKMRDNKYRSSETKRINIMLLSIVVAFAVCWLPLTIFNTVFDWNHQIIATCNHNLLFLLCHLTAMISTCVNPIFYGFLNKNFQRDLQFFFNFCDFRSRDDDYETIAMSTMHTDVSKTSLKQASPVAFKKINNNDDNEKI
Description: Radioligand binding, human neuropeptide Y NPY-Y1 membranes, FlashPlate, [125I]-PYY. Particulars: compound at 10 μM; [125I]-PYY. The method in brief: as §1

The target of assay [10] is T10, Human opioid (ORL1) (Homo sapiens, UniProt P41146).
T10 construct: purchased Perkin Elmer Biosignal
T10 sequence (P41146 whole entry): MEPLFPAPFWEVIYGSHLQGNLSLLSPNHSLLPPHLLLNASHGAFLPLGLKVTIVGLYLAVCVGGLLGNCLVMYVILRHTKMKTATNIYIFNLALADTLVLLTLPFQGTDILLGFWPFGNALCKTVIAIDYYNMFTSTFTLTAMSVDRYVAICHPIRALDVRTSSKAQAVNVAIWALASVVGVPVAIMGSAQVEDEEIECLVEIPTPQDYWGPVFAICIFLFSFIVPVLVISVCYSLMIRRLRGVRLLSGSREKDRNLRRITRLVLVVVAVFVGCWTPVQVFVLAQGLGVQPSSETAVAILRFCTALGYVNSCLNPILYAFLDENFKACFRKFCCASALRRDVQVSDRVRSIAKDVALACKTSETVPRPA
Description: Radioligand binding, human opioid ORL1 membranes, FlashPlate, [125I]-Nociceptin. The conditions noted are these: compound at 10 μM; [125I]-Nociceptin; 10 µM. In short, it runs like this:
as §1

Assay [11] addresses T11, Mouse urotensin (mUR2) (Mus musculus, UniProt Q8VIH9).
T11 construct: purchased Perkin Elmer Biosignal
T11 sequence (Q8VIH9 1-385): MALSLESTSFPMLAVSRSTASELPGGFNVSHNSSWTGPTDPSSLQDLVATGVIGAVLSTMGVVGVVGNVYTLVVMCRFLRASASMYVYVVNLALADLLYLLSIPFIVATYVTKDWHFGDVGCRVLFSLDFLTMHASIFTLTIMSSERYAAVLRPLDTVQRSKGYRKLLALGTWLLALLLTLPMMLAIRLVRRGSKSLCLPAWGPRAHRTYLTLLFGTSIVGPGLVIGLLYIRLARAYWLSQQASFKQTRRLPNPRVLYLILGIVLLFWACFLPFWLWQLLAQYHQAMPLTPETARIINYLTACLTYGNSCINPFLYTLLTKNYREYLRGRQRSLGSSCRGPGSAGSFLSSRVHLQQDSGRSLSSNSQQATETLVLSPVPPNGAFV
Nature of the assay: Radioligand binding, mouse urotensin mUR2 membranes, FlashPlate, [125I]-Urotensin II. The conditions noted are these: compound at 10 μM; [125I]-Urotensin II. In short, it runs like this:
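Cloned mouse urotensin (mUR2) receptor membranes from Perkin Elmer Biosignal were immobilized in FlashPlate microplates using a proprietary coating. Each well got 19.5 μl buffer, then 0.5 μl of DMSO, reference ligand, or compound. Adding 5 μl of [125I]-Urotensin II, diluted to 5× final concentration in binding buffer, started binding. Plates were sealed with TopSeal-A and incubated 1 hour at room temperature in the dark. Wells were counted for 30 seconds each on a TopCount after a 60-second delay, and percentage inhibition was calculated.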

T3 sequence (P41968 whole entry): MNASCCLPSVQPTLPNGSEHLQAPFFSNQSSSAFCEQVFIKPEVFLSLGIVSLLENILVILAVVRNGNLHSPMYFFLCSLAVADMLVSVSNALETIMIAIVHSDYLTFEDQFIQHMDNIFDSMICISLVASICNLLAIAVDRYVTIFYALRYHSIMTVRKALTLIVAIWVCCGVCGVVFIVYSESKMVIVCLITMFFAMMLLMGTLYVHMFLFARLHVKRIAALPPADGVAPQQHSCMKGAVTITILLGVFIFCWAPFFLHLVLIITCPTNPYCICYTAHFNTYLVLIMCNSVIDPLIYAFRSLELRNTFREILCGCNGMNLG
T7 sequence (P35372 whole entry): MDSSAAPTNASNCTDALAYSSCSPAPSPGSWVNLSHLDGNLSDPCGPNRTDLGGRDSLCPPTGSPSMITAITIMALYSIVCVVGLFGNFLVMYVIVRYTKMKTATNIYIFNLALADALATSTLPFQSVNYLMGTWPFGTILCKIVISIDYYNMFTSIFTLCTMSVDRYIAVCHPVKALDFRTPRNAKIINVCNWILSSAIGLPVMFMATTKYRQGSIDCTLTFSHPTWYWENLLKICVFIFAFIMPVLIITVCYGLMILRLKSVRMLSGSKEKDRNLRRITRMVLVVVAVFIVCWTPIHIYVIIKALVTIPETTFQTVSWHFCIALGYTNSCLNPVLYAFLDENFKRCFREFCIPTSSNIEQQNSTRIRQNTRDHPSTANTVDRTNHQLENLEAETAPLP
T1 sequence (P41143 whole entry): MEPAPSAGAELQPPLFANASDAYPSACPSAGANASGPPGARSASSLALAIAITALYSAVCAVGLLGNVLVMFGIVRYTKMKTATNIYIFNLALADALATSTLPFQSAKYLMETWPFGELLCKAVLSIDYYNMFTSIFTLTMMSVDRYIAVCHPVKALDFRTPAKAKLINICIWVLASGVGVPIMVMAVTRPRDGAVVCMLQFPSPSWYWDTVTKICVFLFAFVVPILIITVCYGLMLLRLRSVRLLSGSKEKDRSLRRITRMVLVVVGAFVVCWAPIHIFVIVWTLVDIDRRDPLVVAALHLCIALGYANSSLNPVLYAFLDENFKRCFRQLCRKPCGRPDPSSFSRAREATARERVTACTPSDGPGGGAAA

Consider `NCCCC(=O)NC1C(OCc2ccc(Cl)cc2)OC(COCc2ccc(Cl)cc2)C(O)C1OCc1ccccc1` (single isomer, unassigned) [compound 505], for which the “A1: inhibition of radioligand binding, human δ-opioid (DOP)” value in assay [1] is “− (“−” indicates less than 50% inhibition at 10 μM)”. Besides, the “A2: inhibition of radioligand binding, human κ-opioid (KOP)” value in assay [2] was “− (“−” indicates less than 50% inhibition at 10 μM)”. Besides, in assay [3], the “A3: inhibition of radioligand binding, human melanocortin (MC3)” value was “− (“−” indicates less than 50% inhibition at 10 μM)”. Further, the “A4: inhibition of radioligand binding, human melanocortin (MC4)” value in [4] was “− (“−” indicates less than 50% inhibition at 10 μM)”. In [5], the “A5: inhibition of radioligand binding, human melanocortin (MC5)” value is “+ (“+” indicates greater than 50% inhibition at 10 μM)”. Also, in assay [6], the “A6: inhibition of radioligand binding, human melanin-concentrating hormone (MCH1)” value was “− (“−” indicates less than 50% inhibition at 10 μM)”. Further, the “A7: inhibition of radioligand binding, human μ-opioid (MOP)” value in [7] is “+ (“+” indicates greater than 50% inhibition at 10 μM)”. In addition, in assay [8], the “A8: inhibition of radioligand binding, human neurokinin (NK1)” value is “+ (“+” indicates greater than 50% inhibition at 10 μM)”. In addition, the “A9: inhibition of radioligand binding, human neuropeptide Y (NPY-Y1)” value in [9] is given as “− (“−” indicates less than 50% inhibition at 10 μM)”. For the same compound, in assay [10], the “A10: inhibition of radioligand binding, human opioid (ORL1)” value is reported as “− (“−” indicates less than 50% inhibition at 10 μM)”. Further, the “A11: inhibition of radioligand binding, mouse urotensin (mUR2)” value in assay [11] is recorded as “− (“−” indicates less than 50% inhibition at 10 μM)”.
Turning to `NCCCC(=O)NC1C(OCc2ccc(Cl)cc2)OC(COCc2ccc(Cl)cc2)C(O)C1OCc1ccccc1` (single isomer, unassigned) [compound 506], in [1], the “A1: inhibition of radioligand binding, human δ-opioid (DOP)” value is on record as “− (“−” indicates less than 50% inhibition at 10 μM)”. The “A2: inhibition of radioligand binding, human κ-opioid (KOP)” value in [2] is “− (“−” indicates less than 50% inhibition at 10 μM)”. The “A3: inhibition of radioligand binding, human melanocortin (MC3)” value in [3] is recorded as “− (“−” indicates less than 50% inhibition at 10 μM)”. Besides, in assay [4], the “A4: inhibition of radioligand binding, human melanocortin (MC4)” value was “− (“−” indicates less than 50% inhibition at 10 μM)”. Also, the “A5: inhibition of radioligand binding, human melanocortin (MC5)” value in assay [5] is “+ (“+” indicates greater than 50% inhibition at 10 μM)”. Further, in assay [6], the “A6: inhibition of radioligand binding, human melanin-concentrating hormone (MCH1)” value is given as “− (“−” indicates less than 50% inhibition at 10 μM)”. In assay [7], the “A7: inhibition of radioligand binding, human μ-opioid (MOP)” value was “− (“−” indicates less than 50% inhibition at 10 μM)”. In [8], the “A8: inhibition of radioligand binding, human neurokinin (NK1)” value is “+ (“+” indicates greater than 50% inhibition at 10 μM)”. The “A9: inhibition of radioligand binding, human neuropeptide Y (NPY-Y1)” value in assay [9] was “− (“−” indicates less than 50% inhibition at 10 μM)”. Also, the “A10: inhibition of radioligand binding, human opioid (ORL1)” value in [10] was “+ (“+” indicates greater than 50% inhibition at 10 μM)”. Further, the “A11: inhibition of radioligand binding, mouse urotensin (mUR2)” value in assay [11] was “− (“−” indicates less than 50% inhibition at 10 μM)”.
